Measured values from the CheMixHub viscosity set.

Test: xn = mol fraction of the nth substance listed

CC(C)Br + CCO
viscosity [mPa·s], 101 kPa
Conditions | x1 = 0.1 | x1 = 0.2 | x1 = 0.3 | x1 = 0.4 | x1 = 0.5 | x1 = 0.6 | x1 = 0.7 | x1 = 0.8 | x1 = 0.9
298.15 K | 0.9584 | 0.8399 | 0.7419 | 0.6681 | 0.601 | 0.546 | 0.505 | 0.4811 | 0.4782
303.15 K | 0.8856 | 0.7784 | 0.6899 | 0.6233 | 0.5616 | 0.5172 | 0.4819 | 0.4653 | 0.4647
308.15 K | 0.8081 | 0.711 | 0.6407 | 0.5773 | 0.5251 | 0.4875 | 0.4624 | 0.4474 | 0.4513
313.15 K | 0.7913 | 0.7008 | 0.6327 | 0.5668 | 0.5161 | 0.4739 | 0.4489 | 0.4352 | 0.4285
318.15 K | 0.7206 | 0.644 | 0.5803 | 0.5262 | 0.4829 | 0.4499 | 0.4268 | 0.4152 | 0.4137

CC(O)CO (stereo not drawn) + CCO
Conditions | viscosity [mPa·s]
298.15 K, 101 kPa, x1 = 0.1 | 1.55
298.15 K, 101 kPa, x1 = 0.2 | 2.215
298.15 K, 101 kPa, x1 = 0.3 | 3.185
298.15 K, 101 kPa, x1 = 0.4 | 4.612
298.15 K, 101 kPa, x1 = 0.5 | 6.698
298.15 K, 101 kPa, x1 = 0.6 | 9.706
298.15 K, 101 kPa, x1 = 0.7 | 14.06
298.15 K, 101 kPa, x1 = 0.8 | 20.27
298.15 K, 101 kPa, x1 = 0.9 | 30.07
303 K, 100 kPa, x1 = 0.6 | 6.734
308 K, 100 kPa, x1 = 0.6 | 5.729
308.15 K, 101 kPa, x1 = 0.1 | 1.24
308.15 K, 101 kPa, x1 = 0.2 | 1.719
308.15 K, 101 kPa, x1 = 0.3 | 2.409
308.15 K, 101 kPa, x1 = 0.4 | 3.377
308.15 K, 101 kPa, x1 = 0.5 | 4.699
308.15 K, 101 kPa, x1 = 0.6 | 6.604
308.15 K, 101 kPa, x1 = 0.7 | 9.261
308.15 K, 101 kPa, x1 = 0.8 | 12.96
308.15 K, 101 kPa, x1 = 0.9 | 18.15
313 K, 100 kPa, x1 = 0.6 | 5.069
318 K, 100 kPa, x1 = 0.6 | 4.427
318.15 K, 101 kPa, x1 = 0.1 | 0.9282
318.15 K, 101 kPa, x1 = 0.2 | 1.317
318.15 K, 101 kPa, x1 = 0.3 | 1.854
318.15 K, 101 kPa, x1 = 0.4 | 2.576
318.15 K, 101 kPa, x1 = 0.5 | 3.527
318.15 K, 101 kPa, x1 = 0.6 | 4.797
318.15 K, 101 kPa, x1 = 0.7 | 6.46
318.15 K, 101 kPa, x1 = 0.8 | 8.621
318.15 K, 101 kPa, x1 = 0.9 | 11.43

O=C1CCCC1 + CCOC(=O)OCC
viscosity [mPa·s], 101 kPa
Conditions | x2 = 0.0876 | x2 = 0.1356 | x2 = 0.2458 | x2 = 0.3359 | x2 = 0.4228 | x2 = 0.5415 | x2 = 0.6475 | x2 = 0.7513 | x2 = 0.8664 | x2 = 0.9352
303.15 K | 0.958 | 0.937 | 0.891 | 0.859 | 0.83 | 0.797 | 0.77 | 0.747 | 0.725 | 0.713
308.15 K | 0.893 | 0.873 | 0.833 | 0.803 | 0.776 | 0.745 | 0.722 | 0.701 | 0.681 | 0.668
313.15 K | 0.835 | 0.819 | 0.783 | 0.757 | 0.733 | 0.705 | 0.683 | 0.664 | 0.644 | 0.632

CC(CCO)CC(C)(C)C (stereo not drawn) + CCOC(C)=O
viscosity [mPa·s], 101.33 kPa
Conditions | x2 = 0.1539 | x2 = 0.2904 | x2 = 0.4122 | x2 = 0.5219 | x2 = 0.6208 | x2 = 0.7106 | x2 = 0.7925 | x2 = 0.8677 | x2 = 0.9364
298.15 K | 5.471 | 3.367 | 2.072 | 1.443 | 1.075 | 0.879 | 0.672 | 0.514 | 0.486
303.15 K | 4.696 | 2.968 | 1.837 | 1.305 | 0.975 | 0.789 | 0.631 | 0.526 | 0.475
308.15 K | 4.016 | 2.452 | 1.646 | 1.181 | 0.934 | 0.724 | 0.586 | 0.495 | 0.439
